Test results: paper PMC9732823, “Discovery of Dual Aβ/Tau Inhibitors and Evaluation of Their Therapeutic Effect on a Drosophila Model of Alzheimer’s Disease” (ACS Chemical Neuroscience, 2022)
One block for each compound: values may come before it.

What was measured:
[1] = target: T1, Aβ42 (Homo sapiens, UniProt P05067); assay: Inhibition of Aβ42 aggregation in intact E. coli cells overexpressing Aβ42 (ThS fluorescence); type: cell-based, Escherichia coli; details: read-out: % inhibition Aβ42 aggregation @ 10 μM, intact E. coli cells, compound 10 μM, mean ± SEM of four independent experiments
T1 construct: expressed in transfected cells; host or cells: Escherichia coli BL21 (DE3), pET28a
T1 sequence (P05067 672-713 limits assumed): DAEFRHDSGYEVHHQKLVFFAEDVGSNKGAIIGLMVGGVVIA
Description: (§1) As it would have been labor-intensive and expensive to screen such a number of compounds in two separate antiaggregating studies using recombinant Aβ and Tau, we turned our attention to a simple model of protein aggregation, namely, the intact Escherichia coli (E. coli) cells overexpressing Aβ42 and Tau proteins.[28],[29] Building on the fact that inclusion bodies produced by overexpression of these proteins in E. coli mainly consist of fibrillar aggregates, this simple screening method uses bacteria as an in vivo reservoir for tracking the inhibition of amyloid-type protein aggregation in real time, using the amyloid dye thioflavin S (ThS). Of note, this screening has already been used for the evaluation of libraries of antiaggregating compounds.[28]−[38]
Escherichia coli competent cells BL21 (DE3) were transformed with the pET28a vector (Novagen, Inc., Madison, WI) carrying the DNA sequence of Aβ42. Because of the addition of the initiation codon ATG in front of both genes, the overexpressed peptide contains an additional methionine residue at its N terminus. For overnight culture preparation, an amount of 10 mL of M9 minimal medium containing 50 μg·mL^–1 kanamycin was inoculated with a colony of BL21 (DE3) bearing the plasmid to be expressed at 37 °C. For expression of the Aβ42 peptide, the required volume of overnight culture to obtain 1:500 dilution was added into fresh M9 minimal medium containing 50 μg·mL^–1 kanamycin and 250 μM ThS. The bacterial culture was grown at 37 °C and 250 rpm. When the cell density reached ABS600 nm = 0.6, an amount of 980 μL of culture was transferred into Eppendorf tubes of 1.5 mL with 10 μL of each compound to be tested in DMSO and 10 μL of isopropyl 1-thio-β-D-galactopyranoside (IPTG) at 100 mM. The final concentration of the drug was fixed at 10 μM. The samples were grown overnight at 37 °C and 1400 rpm using a thermomixer (Eppendorf, Hamburg, Germany). As the control of the amyloid presence (maximal amyloid presence), the same amount of DMSO without the drug was added to the sample. In parallel, noninduced samples (in the absence of IPTG) were also prepared and used as controls of the non-amyloid presence. In addition, the absorbance at 600 nm of the samples was checked to assess the potential intrinsic toxicity of the compounds and to confirm the correct bacterial growth.
(§2) ThS (T1892) and other chemical reagents were purchased from Sigma (St. Louis, MO). ThS stock solution (25 mM) was prepared in double-distilled water purified through a Milli-Q system (Millipore). For the fluorescence assay, the ThS spectra were measured on an AMINCO-Bowman series 2 luminescence spectrophotometer (Aminco-Bowman AB2, SLM Aminco, Rochester, NY) from 460 to 600 nm at 25 °C using an excitation wavelength of 440 nm and slit widths of 4 nm. The emission at 485 nm (fluorescence peak of ThS in the presence of amyloids) was recorded. To normalize the ThS fluorescence as a function of the bacterial concentration, ABS600nm was obtained using a Shimadzu UV-2401 PC UV–Vis spectrophotometer (Shimadzu, Japan). Note that the fluorescence normalization was carried out considering as 100% the ThS fluorescence of the bacterial cells expressing the peptide or protein in the absence of the drug and 0% the ThS fluorescence of the bacterial cells nonexpressing the peptide or protein.

[2] = tested on: Arctic Aβ42 Drosophila flies; assay: Climbing assay in Arctic Aβ42 Drosophila flies
Method: Thus, we performed behavioral tests to assess the climbing abilities of Aβ42Drosophila flies with and without treatment with 22 (20 μM), 23 (20 μM), and doxycycline (50 μM), compared to control flies.
(§3) The transactivating protein GAL4 is placed under the control of a specific promoter, with its own spatial and temporal patterns, in this case, Elav, whereas the upstream activation sequence (UAS) localized upstream, the locus controlled by the UAS-Gal4; in our study, UAS expresses construct for the E22G variant of Aβ42 (Arctic Aβ42) (AlzArc2).[56],[64] Around 150 flies (half female/male) for each compound tested were collected and divided into groups of 25 flies. At the top of the media, 25 μL of doxycycline (50 μM), 22 (20 μM), or 23 (20 μM) were added fresh anytime the flies were flipped.
Briefly, males and females 25 per vial were kept at 25 °C. The climbing test was performed on days 7, 14, and 21 after birth. […] The protocol was repeated 10 times at 5-min intervals.

[3] = tested on: Arctic Aβ42 Drosophila flies; assay: Lifespan analysis in Arctic Aβ42 Drosophila flies; details: 20 μM in fly food; days 5, 10, 20 post-eclosion
Method: As longevity is a phenotype that can be rapidly measured in this in vivo AD model, we first assessed changes in Drosophila’s lifespan with and without treatment with 22 and 23 (20 μM). […] Doxycycline was tested at 50 μM, a concentration used in similar previous experiments.[59]
as §3
Briefly, males and females 25 per vial were kept at 25 °C.

[4] = target: T2, Tau protein (Homo sapiens, UniProt P10636); assay: Inhibition of Tau aggregation in intact E. coli cells overexpressing Tau (ThS fluorescence); type: cell-based, Escherichia coli; details: read-out: % inhibition Tau aggregation @ 10 μM, intact E. coli cells, compound 10 μM, mean ± SEM of four independent experiments
T2 construct: expressed in transfected cells; host or cells: Escherichia coli BL21 (DE3) with pTARA and pRKT42
T2 sequence (P10636 1-441 isoform P10636-8): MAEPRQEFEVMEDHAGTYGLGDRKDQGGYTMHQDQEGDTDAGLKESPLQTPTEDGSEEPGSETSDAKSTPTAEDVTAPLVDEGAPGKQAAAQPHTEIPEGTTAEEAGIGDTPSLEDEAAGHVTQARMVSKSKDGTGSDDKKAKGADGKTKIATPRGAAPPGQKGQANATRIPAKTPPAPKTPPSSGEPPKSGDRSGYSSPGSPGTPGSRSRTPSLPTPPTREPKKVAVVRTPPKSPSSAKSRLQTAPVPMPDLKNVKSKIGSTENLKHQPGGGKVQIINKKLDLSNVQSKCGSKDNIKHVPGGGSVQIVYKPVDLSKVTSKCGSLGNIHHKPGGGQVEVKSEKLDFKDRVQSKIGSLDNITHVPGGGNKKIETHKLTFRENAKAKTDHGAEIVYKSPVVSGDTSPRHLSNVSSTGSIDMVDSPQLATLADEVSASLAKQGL
Description: as §1
E. coli BL21 (DE3) competent cells were transformed with pTARA containing the RNA-polymerase gen of the T7 phage (T7RP) under the control of the promoter PBAD. E. coli BL21 (DE3) with pTARA competent cells were transformed with the pRKT42 vector encoding four repeats of Tau protein in two inserts. For overnight culture preparation, 10 mL of M9 medium containing 0.5% of glucose, 100 μg·mL^–1 ampicillin, and 12.5 μg·mL^–1 chloramphenicol were inoculated with a colony of BL21 (DE3) bearing the plasmids to be expressed at 37 °C. For expression of Tau protein, the required volume of overnight culture to obtain 1:500 dilution was added to fresh M9 minimal medium containing 0.5% of glucose, 50 μg·mL^–1 ampicillin, 12.5 μg·mL^–1 chloramphenicol, and 25 μM ThS. The bacterial culture was grown at 37 °C and 250 rpm. When the cell density reached ABS600 nm= 0.6, an amount of 980 μL of culture was transferred into Eppendorf tubes of 1.5 mL with 10 μL of each compound to be tested in DMSO and 10 μL of arabinose at 25%. The final concentration of the drug was fixed at 10 μM. The samples were grown overnight at 37 °C and 1400 rpm using a thermomixer (Eppendorf, Hamburg, Germany). As the control of maximal amyloid presence, the same amount of DMSO without the drug was added to the sample. In parallel, noninduced samples (in the absence of arabinose) were also prepared and used as controls for the amyloid absence. In addition, the absorbance at 600 nm of the samples was checked to assess the potential intrinsic toxicity of the compounds and to confirm the correct bacterial growth.
as §2

[5] = Solubility in the in vitro aggregation assay conditions
Method: (§4) * The results are the mean of at least two independent measurements each performed in duplicate.
1 Compounds were measured at 50 μM.

[6] = physchem; details: phosphate buffer (Tau(306-336) aggregation assay conditions), pH 7.4, aqueous buffer
Method: as §4
1 Compounds were measured at 50 μM.

[7] = tested on: cerebellar granule neurons (CGNs); assay: Neurotoxicity on primary cultures of cerebellar granule neurons (nuclei counting after Hoechst staining); details: differentiated CGNs, 24 h, percentage of healthy nuclei on total nuclei, mean ± SEM of three experiments
[8] = PAMPA-BBB assay
Description: Thus, to reduce attrition in the development process, the evaluation of BBB penetration at a very early drug discovery stage is of crucial importance. In light of this, the ability of the previously selected compounds to cross the BBB was predicted by a parallel artificial membrane permeability assay (PAMPA)-BBB,[41] a high-throughput technique widely used as an indicator of a molecule’s passive diffusion through the BBB. Six commercially available drugs were used to validate the assay.
PAMPA (the parallel artificial membrane permeability assay) is a high-throughput screening tool applicable for the prediction of the passive transport of potential drugs across the BBB.[41] In this study, it has been used as a non-cell-based in vitro assay carried out in a coated 96-well membrane filter. The filter membrane of the donor plate was coated with PBL (Polar Brain Lipid, Avanti) in dodecane (4 μL of 20 mg/mL PBL in dodecane) and the acceptor well was filled with 300 μL of phosphate buffer saline, (PBS pH 7.4; VA). The tested compounds were dissolved first in DMSO and then diluted with PBS pH 7.4 to reach the final concentrations of 50–500 μM in the donor well. […] Then, 300 μL of the donor solution (VD) was added to the donor wells and the donor filter plate was carefully put on the acceptor plate so that the coated membrane was “in touch” with both donor solution and acceptor buffer. In principle, the test compound diffuses from the donor well through the polar brain lipid membrane (area = 0.28 cm^2) to the acceptor well. The concentrations of the tested compound in both donor and the acceptor wells were assessed after 3, 4, 5, and 6 h of incubation in quadruplicate using a UV plate reader, Synergy HT (Biotek) at the maximum absorption wavelength of each compound (n=3). In addition to that, solution of the theoretical compound concentration, simulating the equilibrium state established if the membrane were ideally permeable, was prepared and assessed as well. The concentrations of the compounds in the donor and acceptor wells and the equilibrium concentration were calculated from the standard curve and expressed as the permeability (Pe) according to the equation[41] [drawing 1] where [drawing 2]

[9] = target: T3, Tau(306-336) peptide (Homo sapiens, UniProt P10636); assay: Inhibition of Tau(306-336) peptide aggregation (ThT fluorimetric assay); type: biochemical; details: Tau(306-336) 50 μM, compound 50 μM, phosphate buffer pH 7.4, read-out: Inhibition of Tau(306-336) peptide self-aggregation (%) ± SEM
T3 construct: 1 mg of Tau(306-336) (Bachem AG, Germany) was dissolved; purchased Bachem AG, Germany
T3 sequence (P10636 623-653 limits assumed): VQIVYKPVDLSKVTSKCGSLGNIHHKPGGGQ
Method: Secondly, we investigated the ability of the compounds to interfere with Tau aggregation, using the third repeat domain Tau fragment (Tau(306-336) peptide).[44] The aggregation profiles of the Tau(306–336) peptide (50 μM) in the absence and presence of equimolar concentrations of either 22 or 23 were monitored in phosphate buffer 50 mM, pH 7.4, using Thioflavin T (ThT) as the detection dye.
Briefly, 1 mg of Tau(306-336) (Bachem AG, Germany) was dissolved in 1,1,1,3,3,3,-hexafluoro-2-propanol (HFIP), gently vortexed, sonicated, and kept overnight at room temperature. Subsequently, the sample was aliquoted, dried, and stored at −20 °C. Stock solutions of Tau(306-336) peptide (500 μM) were prepared in ultrapure water and immediately used. […] Tau(306-336) aggregation was monitored at 30 °C in a black, clear bottom 96-well plate (Greiner) by the EnSpire multiplate reader (Perkin Elmer) using the ThT fluorimetric assay[14] with some variations. […] Fluorescence data were recorded every 10 min overnight with 1 min shaking at 800 rpm prior to each reading. […] Inhibition % is expressed as the mean ± SEM. Quenching of ThT fluorescence was evaluated by preparing blank solutions containing the inhibitor/reference compound and preformed fibrils of Tau(306–336) peptide.

SMILES: CN(C)CCN1C(=O)S/C(=C\c2ccc3[nH]c4ccc(/C=C5\SC(=O)N(CCN(C)C)C5=O)cc4c3c2)C1=O [Compound 22, (5Z,5′Z)-5,5′-((9H-Carbazole-3,6-diyl)bis(methanylylidene))bis(3-(2-(dimethylamino)ethyl)thiazolidine-2,4-dione)]
inhibition at 10 µM [1]: 74 ± 4.3%
climbing abilities of Aβ42 Drosophila flies on day 21 ([2]; 20 μM in fly food): good climbing performances
climbing abilities of Aβ42 Drosophila flies ([2]; 20 μM in fly food, days 7, 14, 21 post-eclosion): greatly improving the climbing performances
lifespan of Aβ42 Drosophila flies [3]: increase in longevity
inhibition at 10 µM [4]: 66.1 ± 3.9%
solubility in Tau(306-336) aggregation assay conditions ([5]; 50 μM, phosphate buffer 50 mM pH 7.4, NS = not soluble in the assay conditions): solubility issues
solubility in Aβ42 ThT-based assay condition ([5]; dedicated solubility assays): too limited to grant trustable results
solubility [6]: < 50 µM
% survival neurotoxicity @ 10 μM [7]: 94.3 ± 1.8%
Papp ([8]; PAMPA, pH 7.4): 5.3 ± 1.17 ×10⁻⁶ cm/s
BBB permeability prediction ([8]; PAMPA-BBB): predicted to passively diffuse across the BBB
CNS (+/-) ([8]; PAMPA-BBB penetration estimation): CNS + (CNS + (high BBB permeation predicted): Pe (×10-6 cm s-1) > 4.0)

inhibition at 50 µM [9]: 61.5 ± 0.8%
SMILES: C[C@H]1c2cccc(O)c2C(=O)C2=C(O)[C@]3(O)C(=O)C(C(N)=O)=C(O)[C@@H](N(C)C)[C@@H]3[C@@H](O)[C@@H]21 [Doxycycline, doxycycline, reference compound]
climbing abilities of Aβ42 Drosophila flies on day 21 ([2]; 50 μM in fly food): strongly declined
